Consider one molecule from patent US12577281B2, “Mitochondrial-derived peptides and analogs thereof for use as a therapy for age-related diseases including cancer” (University of Southern California, priority 2020, dated 2026).

This series in a line: Safety of NOSH in mice. The class given is in vivo. The procedure: FIG. 1. NOSH (ND-One short open reading frames (sORF) in Humans) is safe in mice. NOSH has a sequence of […] (SEQ ID NO:215).
NOSH was safe in mice. Further, NOSH increased autophagy. The level of autophagy-related protein microtubule-associated protein 1 light chain 3 (LC3) was increased in PC3 cells treated with 5 μM NOSH for 6 h. FIG. 2.

Where a SMILES comes first, the peptide text is derived from it.

In the case of `CC[C@H](C)[C@H](NC(=O)[C@H](CC(C)C)NC(=O)[C@@H](NC(=O)[C@H](CC(C)C)NC(=O)[C@H](CCSC)NC(=O)[C@H](CC(C)C)NC(=O)[C@H](CO)NC(=O)[C@H](CC(C)C)NC(=O)[C@H](CO)NC(=O)[C@H](CCCNC(=N)N)NC(=O)CNC(=O)[C@H](CO)NC(=O)[C@H](CCCNC(=N)N)NC(=O)[C@H](CCCNC(=N)N)NC(=O)[C@@H](NC(=O)[C@H](C)NC(=O)[C@H](CC(C)C)NC(=O)[C@H](CC(C)C)NC(=O)[C@H](CC(C)C)NC(=O)CNC(=O)[C@H](Cc1ccccc1)NC(=O)[C@H](CC(C)C)NC(=O)[C@H](CCCNC(=N)N)NC(=O)[C@@H](N)CCSC)C(C)C)[C@@H](C)O)C(=O)N[C@@H](CCCNC(=N)N)C(=O)NCC(=O)N[C@@H](CC(C)C)C(=O)N[C@@H](CO)C(=O)N[C@@H](CCCCN)C(=O)N[C@@H](CCCNC(=N)N)C(=O)N[C@@H](CC(C)C)C(=O)NCC(=O)O` [NOSH] (H-MRLFGLLLAVRRSGRSLSLMLTLIRGLSKRLG-OH), the safety in mice result is “safe”.
